The text below walks through data of patent US9873696B2, “Neprilysin inhibitors” (THERAVANCE BIOPHARMA R&D IP, LLC, priority 2010, dated 2018).

In general, Ki refers to a dissociation constant, usually derived from enzyme kinetics or from competition with a known ligand.

The target in the experiment is T1, human NEP (Homo sapiens, UniProt P08473).
T1 construct: purchased R&D Systems, Minneapolis, Minn; 1182-ZN
T1 sequence (P08473 whole entry): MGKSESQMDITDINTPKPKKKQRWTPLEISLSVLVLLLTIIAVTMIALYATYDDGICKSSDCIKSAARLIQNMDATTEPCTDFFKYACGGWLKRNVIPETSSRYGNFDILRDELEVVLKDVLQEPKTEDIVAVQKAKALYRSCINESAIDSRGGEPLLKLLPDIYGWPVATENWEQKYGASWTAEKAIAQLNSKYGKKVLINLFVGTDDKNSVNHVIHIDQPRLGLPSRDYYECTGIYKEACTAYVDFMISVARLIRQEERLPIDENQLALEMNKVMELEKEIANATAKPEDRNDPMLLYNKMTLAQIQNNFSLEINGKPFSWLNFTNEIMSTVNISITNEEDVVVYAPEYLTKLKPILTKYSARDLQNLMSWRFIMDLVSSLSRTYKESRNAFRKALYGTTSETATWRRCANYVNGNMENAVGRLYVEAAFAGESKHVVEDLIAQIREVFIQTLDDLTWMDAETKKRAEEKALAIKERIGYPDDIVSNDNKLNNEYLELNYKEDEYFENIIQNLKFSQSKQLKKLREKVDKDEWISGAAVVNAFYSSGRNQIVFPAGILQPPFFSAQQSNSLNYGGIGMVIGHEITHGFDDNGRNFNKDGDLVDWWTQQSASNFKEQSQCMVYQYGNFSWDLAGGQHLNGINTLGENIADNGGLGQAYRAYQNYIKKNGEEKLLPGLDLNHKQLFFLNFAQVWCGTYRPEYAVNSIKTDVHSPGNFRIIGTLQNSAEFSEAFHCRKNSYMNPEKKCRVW
The experiment in a line: In vitro enzyme inhibition assay at human NEP (Assay 1). The experiment is classed as biochemical. The following applies: recombinant enzyme, fluorogenic peptide substrate, 37° C. The essentials: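 Recombinant enzyme preincubated with compound 30 min at 37 °C, then 10 μM Mca-D-Arg-Arg-Leu-Dap-(Dnp)-OH added in 50 mM HEPES pH 7.5, 100 mM NaCl, 0.01% Tween-20, 10 μM ZnSO4; stopped after 20 min with acetic acid. Fluorescence read at 320/405 nm; Ki from nonlinear fit of v=v0/[1+(I/K′)], reported as pKi.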
Consider `O=C(NN(Cc1ccc(-c2cc(Cl)ccc2F)cc1)C[C@@H](O)C(=O)O)c1cc(F)c2nn[nH]c2c1` [Example 8-73, (R)-3-[N-(5′-Chloro-2′-fluoro-biphenyl-4-ylmethyl)-N′-(7-fluoro-3H-benzotriazole-5-carbonyl)-hydrazino]-2-hydroxy-propionic acid], for which the inhibition constant Ki was no more than 1 nM.

Regarding `O=C(NN(Cc1ccc(-c2ccccc2)cc1F)C[C@@H](O)C(=O)O)c1cc(O)no1` [Example 10-1, (R)-3-[N-(3-Fluoro-biphenyl-4-ylmethyl)-N′-(3-hydroxy-isoxazole-5-carbonyl)-hydrazino]-2-hydroxy-propionic acid], the Ki was 1.26 to 10 nM. Regarding `CN(C)C(=O)c1cc(C(=O)NN(Cc2ccc(-c3cccc(Cl)c3)cc2)C[C@@H](O)C(=O)O)[nH]n1` [Example 4-13, (R)-3-[N-(3′-Chlorobiphenyl-4-ylmethyl)-N′-(5-dimethylcarbamoyl-2H-pyrazole-3-carbonyl)-hydrazino]-2-hydroxy-propionic acid], the Ki was no more than 1 nM.

Regarding `COc1ccc(Cl)cc1-c1ccc(CN(C[C@@H](O)C(=O)O)NC(=O)c2cc(O)no2)cc1` [Example 8-2, (R)-3-[N-(5′-Chloro-2′-methoxy-biphenyl-4-ylmethyl)-N′-(3-hydroxy-isoxazole-5-carbonyl)-hydrazino]-2-hydroxy-propionic acid], the Ki is no more than 1 nM. As to `O=C(NN(Cc1ccc(-c2ccccc2)cc1)C[C@@H](O)C(=O)O)c1cnn[nH]1` [Example 2-21, (R)-3-[N-Biphenyl-4-ylmethyl-N′-(3H-[1,2,3]triazole-4-carbonyl)hydrazino]-2-hydroxypropionic acid], the inhibitory constant (Ki) was 12.6 to 100 nM. To `O=C(NN(Cc1ccc(-c2cc(Cl)ccc2Cl)cc1)C[C@H](O)C(=O)O)c1cc(O)no1` [Example 8-22, (S)-3-[N-(2′,5′-Dichloro-biphenyl-4-ylmethyl)-N′-(3-hydroxy-isoxazole-5-carbonyl)-hydrazino]-2-hydroxy-propionic acid] belongs no more than 1 nM. For `O=C(NN(Cc1ccc(-c2ccccc2)cc1)C[C@H](O)C(=O)O)c1cc(F)c2[nH]nnc2c1` [Example 2-24, (S)-3-[N-Biphenyl-4-ylmethyl-N′-(7-fluoro-1H-benzotriazole-5-carbonyl)-hydrazino]-2-hydroxypropionic acid] the value was 126 to 1000 nM.

For `CC(C)c1cc(C(=O)NN(Cc2ccc(-c3cc(Cl)ccc3F)cc2)C[C@@H](O)C(=O)O)[nH]n1` [Example 8-44, (R)-3-[N-(5′-Chloro-2′-fluoro-biphenyl-4-ylmethyl)-N′-(5-isopropyl-2H-pyrazole-3-carbonyl)-hydrazino]-2-hydroxy-propionic acid], the Ki is no more than 1 nM. For `O=C(NN(Cc1ccc(-c2cc(Cl)ccc2F)cc1)C[C@@H](O)C(=O)O)c1cc(-c2cccc(F)c2)no1` [Example 8-13, (R)-3-{N-(5′-Chloro-2′-fluoro-biphenyl-4-ylmethyl)-N′-[3-(3-fluoro-phenyl)-isoxazole-5-carbonyl]-hydrazino}-2-hydroxy-propionic acid], the Ki is no more than 1 nM. For `O=C(O)c1cc(C(=O)NN(Cc2ccc(-c3ccccc3)cc2)C[C@H](O)C(=O)O)[nH]n1` [Example 2-1, 5-[N′-Biphenyl-4-ylmethyl-N′-((S)-2-carboxy-2-hydroxyethyl)-hydrazinocarbonyl]-1H-pyrazole-3-carboxylic acid], the inhibition constant (Ki) is 1.26 to 10 nM.

Consider `O=C(NN(Cc1ccc(-c2cccc(Cl)c2)cc1)C[C@@H](O)C(=O)O)c1cc(-c2cnccn2)n[nH]1` [Example 4-24, (R)-3-[N-(3′-Chlorobiphenyl-4-ylmethyl)-N′-(5-pyrazin-2-yl-2H-pyrazole-3-carbonyl)-hydrazino]-2-hydroxy-propionic acid], for which the Ki is 1.26 to 10 nM. To `O=C(NN(Cc1ccc(-c2cc(Cl)ccc2F)cc1)C[C@@H](O)C(=O)O)c1cc(-c2cccnc2)on1` [Example 8-34, (R)-3-[N-(5′-Chloro-2′-fluoro-biphenyl-4-ylmethyl)-N′-(5-pyridin-3-yl-isoxazole-3-carbonyl)-hydrazino]-2-hydroxy-propionic acid] belongs 1.26 to 10 nM; to `O=C(NN(Cc1ccc(-c2cc(Cl)ccc2F)cc1)C[C@@H](O)C(=O)O)c1nn(-c2ccc(F)cc2)c(=O)[nH]1` [Example 8-65, (R)-3-{N-(5′-Chloro-2′-fluoro-biphenyl-4-ylmethyl)-N′-[1-(4-fluoro-phenyl)-5-oxo-4,5-dihydro-1H-[1,2,4]triazole-3-carbonyl]-hydrazino}-2-hydroxy-propionic acid], 1.26 to 10 nM. On to `O=C(NN(Cc1ccc(-c2ccccc2)cc1)C[C@H](O)C(=O)O)c1nnc[nH]1` [Example 2-20, (S)-3-[N-Biphenyl-4-ylmethyl-N′-(4H-[1,2,4]triazole-3-carbonyl)hydrazino]-2-hydroxypropionic acid], for which the Ki is 126 to 1000 nM. To `O=C(NN(Cc1ccc(-c2ccccc2)cc1)C[C@@H](O)C(=O)O)c1cc(F)c2[nH]nnc2c1` [Example 2-23, (R)-3-[N-Biphenyl-4-ylmethyl-N′-(7-fluoro-1H-benzotriazole-5-carbonyl)-hydrazino]-2-hydroxypropionic acid] belongs 126 to 1000 nM. `CC(C)(O)c1cc(C(=O)NN(Cc2ccc(-c3cccc(Cl)c3)cc2)C[C@@H](O)C(=O)O)[nH]n1` [Example 4-27, (R)-3-{N-(3′-Chlorobiphenyl-4-ylmethyl)-N′-[5-(1-hydroxy-1-methyl-ethyl)-2H-pyrazole-3-carbonyl]-hydrazino}-2-hydroxy-propionic acid]: the Ki was 1.26 to 10 nM.

`O=C(NN(Cc1ccc(-c2cc(Cl)ccc2F)cc1)C[C@@H](O)C(=O)O)c1cc(-c2ccccc2F)no1` [Example 8-18, (R)-3-{N-(5′-Chloro-2′-fluoro-biphenyl-4-ylmethyl)-N′-[3-(2-fluoro-phenyl)-isoxazole-5-carbonyl]-hydrazino}-2-hydroxy-propionic acid]: the inhibition constant Ki was no more than 1 nM. Regarding `CCCCc1cc(C(=O)NN(Cc2ccc(-c3cc(Cl)ccc3F)cc2)C[C@@H](O)C(=O)O)nn1CC(=O)O` [Example 8-55, (R)-3-[N′-(5-Butyl-1-carboxymethyl-1H-pyrazole-3-carbonyl)-N-(5′-chloro-2′-fluoro-biphenyl-4-ylmethyl)-hydrazino]-2-hydroxy-propionic acid], the Ki was 1.26 to 10 nM. As to `O=C(NN(Cc1ccc(-c2ccccc2)cc1)C[C@@H](O)C(=O)O)c1cc(O)no1` [Example 2-19, (R)-3-[N-Biphenyl-4-ylmethyl-N′-(3-hydroxyisoxazole-5-carbonyl)-hydrazino]-2-hydroxypropionic acid], the Ki is 1.26 to 10 nM. To `CC(=O)c1cc(C(=O)NN(Cc2ccc(-c3cccc(Cl)c3)cc2)C[C@@H](O)C(=O)O)[nH]n1` [Example 4-25, (R)-3-[N′-(5-Acetyl-2H-pyrazole-3-carbonyl)-N-(3′-chlorobiphenyl-4-ylmethyl)-hydrazino]-2-hydroxy-propionic acid] belongs no more than 1 nM. Regarding `O=C(NN(Cc1ccc(-c2cccc(Cl)c2)cc1)C[C@@H](O)C(=O)O)c1cnn[nH]1` [Example 4-3, (R)-3-[N-(3′-Chlorobiphenyl-4-ylmethyl)-N′-(3H-[1,2,3]triazole-4-carbonyl)-hydrazino]-2-hydroxy-propionic acid], the Ki is 1.26 to 10 nM. To `O=C(NN(Cc1ccc(-c2cccc(Cl)c2)cc1)C[C@@H](O)C(=O)O)c1nc(O)n[nH]1` [Example 4-2, (R)-3-[N-(3′-Chlorobiphenyl-4-ylmethyl)-N′-(5-hydroxy-2H-[1,2,4]triazole-3-carbonyl)-hydrazino]-2-hydroxy-propionic acid] belongs 1.26 to 10 nM; to `O=C(O)c1cc(C(=O)NN(Cc2ccc(-c3cccc(Cl)c3)cc2)C[C@@H](O)C(=O)O)ncn1` [Example 4-35, 6-[N′-((R)-2-Carboxy-2-hydroxy-ethyl)-N′-(3′-chlorobiphenyl-4-ylmethyl)-hydrazinocarbonyl]-pyrimidine-4-carboxylic acid], no more than 1 nM; to `COc1c(F)c(F)c(Cn2nc(C(=O)NN(Cc3ccc(-c4ccccc4)cc3)C[C@@H](O)C(=O)O)cc2C(=O)O)c(F)c1F` [Example 2-18, 5-[N′-Biphenyl-4-ylmethyl-N′-((R)-2-carboxy-2-hydroxyethyl)-hydrazinocarbonyl]-2-(2,3,5,6-tetrafluoro-4-methoxybenzyl)-2H-pyrazole-3-carboxylic acid], 1.26 to 10 nM. For `O=C(NN(Cc1ccc(-c2cccc(Cl)c2)cc1)C[C@@H](O)C(=O)O)c1cc(O)no1` [Example 3B, (R)-3-[N-(3′-Chlorobiphenyl-4-ylmethyl)-N′-(3-hydroxyisoxazole-5-carbonyl)-hydrazino]-2-hydroxypropionic Acid] the value was no more than 1 nM.

In the case of `O=C(NN(Cc1ccc(-c2cccc(Cl)c2)cc1)C[C@@H](O)C(=O)O)c1cc(O)nc(O)n1` [Example 4-36, (R)-3-[N-(3′-Chlorobiphenyl-4-ylmethyl)-N′-(2,6-dihydroxy-pyrimidine-4-carbonyl)-hydrazino]-2-hydroxy-propionic acid], the Ki is 12.6 to 100 nM. Turning to `O=C(NN(Cc1ccc(-c2cc(Cl)ccc2F)cc1)C[C@@H](O)C(=O)O)c1cc(-c2cnccn2)[nH]n1` [Example 8-50, (R)-3-[N-(5′-Chloro-2′-fluoro-biphenyl-4-ylmethyl)-N′-(5-pyrazin-2-yl-1H-pyrazole-3-carbonyl)-hydrazino]-2-hydroxy-propionic acid], the Ki was no more than 1 nM. As for `CCCc1cc(C(=O)NN(Cc2ccc(-c3cc(Cl)ccc3F)cc2)C[C@@H](O)C(=O)O)on1` [Example 8-31, (R)-3-[N-(5′-Chloro-2′-fluoro-biphenyl-4-ylmethyl)-N′-(3-propyl-isoxazole-5-carbonyl)-hydrazino]-2-hydroxy-propionic acid], the Ki is no more than 1 nM.

Turning to `O=C(NN(Cc1ccc(-c2cccc(Cl)c2)cc1)C[C@@H](O)C(=O)O)c1cnc(-c2ccccc2)o1` [Example 4-28, (R)-3-[N-(3′-Chlorobiphenyl-4-ylmethyl)-N′-(2-phenyl-oxazole-5-carbonyl)-hydrazino]-2-hydroxy-propionic acid], the inhibitory constant (Ki) is 12.6 to 100 nM.
